Experimental data taken from patent US20140179664A1, “Heterocyclyl Pyrimidine Analogues As JAK Inhibitors” (Cellzome Limited, priority 2011, published 2014).

Columns and labels:
[1] = target: T1, JAK1 (Homo sapiens, UniProt P23458); assay: Kinobeads assay, JAK1; type: binding; details: mixed Molt4/Ramos lysate, read-out: Inhibition values (IC50) JAK1
T1 construct: endogenous in cells; host or cells: Molt4 (ATCC CRL-1582) and Ramos (ATCC CRL-1596), mixed lysate 1:2
Protocol: After the incubation time the beads with captured proteins were separated from the lysate. Bound proteins were then eluted and the presence of JAK1, JAK2, JAK3 and TYK2 was detected and quantified using specific antibodies in a dot blot procedure and the Odyssey infrared detection system. Dose response curves for individual kinases were generated and IC50 values calculated.
(§1) 5×DP buffer: 250 mM Tris-HCl pH 7.4, 25% Glycerol, 7.5 mM MgCl2, 750 mM NaCl, 5 mM Na3VO4; filter the 5×DP buffer through a 0.22 μm filter and store in aliquots at −80° C. The 5×DP buffer is diluted with H2O to 1×DP buffer containing 1 mM DTT and 25 mM NaF.
Stock solutions of test compounds were prepared in DMSO. […] Starting with this solution a 1:3 dilution series (9 steps) was prepared. For control experiments (no test compound) a buffer containing 2% DMSO was used.
Cells were homogenized in a Potter S homogenizer in lysis buffer: 50 mM Tris-HCl, 0.8% NP40, 5% glycerol, 150 mM NaCl, 1.5 mM MgCl2, 25 mM NaF, 1 mM sodium vanadate, 1 mM DTT, pH 7.5. […] The material was dounced 10 times using a mechanized POTTER S, transferred to 50 mL falcon tubes, incubated for 30 minutes on ice and spun down for 10 minutes at 20,000 g at 4° C. (10,000 rpm in Sorvall SLA600, precooled). […] (33.500 rpm in Ti50.2, precooled). The supernatant was transferred again to a fresh 50 mL falcon tube, the protein concentration was determined by a Bradford assay (BioRad) and samples containing 50 mg of protein per aliquot were prepared. The samples were immediately used for experiments or frozen in liquid nitrogen and stored frozen at −80° C.
Cell lysate (approximately 50 mg protein per plate) was thawed in a water bath at room temperature and then stored on ice. […] The diluted cell lysate was stored on ice. Mixed Molt4/Ramos lysate was prepared by combining one volume of Molt4 lysate and two volumes of Ramos lysate (ratio 1:2).
Plates were sealed and incubated for 3 hours in a cold room on a plate shaker (Heidolph tiramax 1000) at 750 rpm. Afterwards the plate was washed 3 times with 230 μL washing buffer (1×DP 0.4% NP40). […] The eluate was frozen quickly at −80° C. and stored at −20° C.
Afterwards the membrane was washed twice for 10 minutes with PBS buffer containing 0.2% Tween 20 at room temperature. […] Afterwards the membrane was washed twice for 10 minutes each with 1×PBS buffer containing 0.2% Tween 20 at room temperature. Then the membrane was rinsed once with PBS buffer to remove residual Tween 20. The membrane was kept in PBS buffer at 4° C. and then scanned with the Odyssey instrument. Fluorescence signals were recorded and analysed according to the instructions of the manufacturer.

[2] = target: T2, TYK2 (Homo sapiens, UniProt P29597); assay: Kinobeads assay, TYK2; type: binding; details: mixed Molt4/Ramos lysate, read-out: Inhibition values (IC50) TYK2
T2 construct: endogenous in cells; host or cells: Molt4 (ATCC CRL-1582) and Ramos (ATCC CRL-1596), mixed lysate 1:2
T2 sequence (P29597 whole entry): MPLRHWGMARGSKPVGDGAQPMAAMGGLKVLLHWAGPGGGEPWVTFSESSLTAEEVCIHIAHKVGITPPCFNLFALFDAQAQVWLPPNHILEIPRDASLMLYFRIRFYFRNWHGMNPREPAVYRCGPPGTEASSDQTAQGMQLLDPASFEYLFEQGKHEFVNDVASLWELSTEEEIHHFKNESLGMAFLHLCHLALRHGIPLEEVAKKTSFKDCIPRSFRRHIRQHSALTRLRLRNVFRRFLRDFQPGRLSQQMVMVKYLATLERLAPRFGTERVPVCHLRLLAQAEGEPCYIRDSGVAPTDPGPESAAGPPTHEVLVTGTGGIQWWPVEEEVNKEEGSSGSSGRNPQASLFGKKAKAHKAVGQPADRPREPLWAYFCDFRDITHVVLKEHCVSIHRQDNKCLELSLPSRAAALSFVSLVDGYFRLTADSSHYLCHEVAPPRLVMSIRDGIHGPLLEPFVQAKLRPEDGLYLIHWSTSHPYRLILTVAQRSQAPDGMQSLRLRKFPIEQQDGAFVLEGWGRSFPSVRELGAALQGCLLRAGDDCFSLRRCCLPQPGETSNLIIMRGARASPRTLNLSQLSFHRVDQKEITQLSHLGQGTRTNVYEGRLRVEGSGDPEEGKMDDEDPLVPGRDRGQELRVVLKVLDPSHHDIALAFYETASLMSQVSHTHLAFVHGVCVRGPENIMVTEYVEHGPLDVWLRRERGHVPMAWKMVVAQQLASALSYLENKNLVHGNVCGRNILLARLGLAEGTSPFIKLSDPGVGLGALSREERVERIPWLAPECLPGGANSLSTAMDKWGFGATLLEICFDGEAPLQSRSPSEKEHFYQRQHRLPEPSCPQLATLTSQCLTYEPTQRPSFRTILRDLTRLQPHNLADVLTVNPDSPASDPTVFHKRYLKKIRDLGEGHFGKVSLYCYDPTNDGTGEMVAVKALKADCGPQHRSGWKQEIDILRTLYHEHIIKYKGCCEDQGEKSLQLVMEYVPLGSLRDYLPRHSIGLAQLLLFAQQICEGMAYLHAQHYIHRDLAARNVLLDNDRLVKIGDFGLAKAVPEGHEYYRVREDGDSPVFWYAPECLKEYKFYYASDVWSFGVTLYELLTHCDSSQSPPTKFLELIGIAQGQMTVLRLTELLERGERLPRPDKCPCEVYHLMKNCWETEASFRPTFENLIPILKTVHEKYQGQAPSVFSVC
Protocol: The compounds of the present invention as described in the previous examples were tested in a Kinobeads™ assay as described for ZAP-70 (WO-A 2007/137867). Briefly, test compounds (at various concentrations) and the affinity matrix with the immobilized aminopyrido-pyrimidine ligand 24 were added to cell lysate aliquots and allowed to bind to the proteins in the lysate sample. After the incubation time the beads with captured proteins were separated from the lysate. Bound proteins were then eluted and the presence of JAK1, JAK2, JAK3 and TYK2 was detected and quantified using specific antibodies in a dot blot procedure and the Odyssey infrared detection system. Dose response curves for individual kinases were generated and IC50 values calculated. Kinobeads™ assays for ZAP-70 (WO-A 2007/137867) and for kinase selectivity profiling (WO-A 2006/134056) have been previously described.
The affinity matrix was washed two times with 15 mL of lx DP buffer containing 0.2% NP40 (IGEPAL® CA-630, Sigma, #13021) and then resuspended in 1×DP buffer containing 0.2% NP40 (3% beads slurry).
as §1
Stock solutions of test compounds were prepared in DMSO. In a 96 well plate […] solution of diluted test compounds at 5 mM in DMSO were prepared. Starting with this solution a 1:3 dilution series (9 steps) was prepared. For control experiments (no test compound) a buffer containing 2% DMSO was used.
Molt4 cells (ATCC catalogue number CRL-1582) and Ramos cells (ATCC catalogue number CRL-1596) were grown in 1 L Spinner flasks (Integra Biosciences, #182101) in suspension in RPMI 1640 medium (Invitrogen, #21875-034) supplemented with 10% Fetal Bovine Serum (Invitrogen) at a density between 0.15×10^6 and 1.2×10^6 cells/mL. Cells were harvested by centrifugation, washed once with 1×PBS buffer (Invitrogen, #14190-094) and cell pellets were frozen in liquid nitrogen and subsequently stored at −80° C. Cells were homogenized in a Potter S homogenizer in lysis buffer: 50 mM Tris-HCl, 0.8% NP40, 5% glycerol, 150 mM NaCl, 1.5 mM MgCl2, 25 mM NaF, 1 mM sodium vanadate, 1 mM DTT, pH 7.5. One complete EDTA-free tablet (protease inhibitor cocktail, Roche Diagnostics, 1873580) per 25 mL buffer was added. The material was dounced 10 times using a mechanized POTTER S, transferred to 50 mL falcon tubes, incubated for 30 minutes on ice and spun down for 10 minutes at 20,000 g at 4° C. (10,000 rpm in Sorvall SLA600, precooled). The supernatant was transferred to an ultracentrifuge (UZ)-polycarbonate tube (Beckmann, 355654) and spun for 1 hour at 100.000 g at 4° C. (33.500 rpm in Ti50.2, precooled). The supernatant was transferred again to a fresh 50 mL falcon tube, the protein concentration was determined by a Bradford assay (BioRad) and samples containing 50 mg of protein per aliquot were prepared. The samples were immediately used for experiments or frozen in liquid nitrogen and stored frozen at −80° C.
Cell lysate (approximately 50 mg protein per plate) was thawed in a water bath at room temperature and then stored on ice. To the thawed cell lysate 1×DP 0.8% NP40 buffer containing protease inhibitors (1 tablet for 25 mL buffer; EDTA-free protease inhibitor cocktail; Roche Diagnostics 1873580) was added in order to reach a final protein concentration of 10 mg/mL total protein. The diluted cell lysate was stored on ice. Mixed Molt4/Ramos lysate was prepared by combining one volume of Molt4 lysate and two volumes of Ramos lysate (ratio 1:2).
To a 96 well filter plate (Multiscreen HTS, BV Filter Plates, Millipore #MSBVN1250) were added per well: 100 μL affinity matrix (3% beads slurry), […], of compound solution, and 50 μL of diluted lysate. […]

T1 sequence (P23458 whole entry): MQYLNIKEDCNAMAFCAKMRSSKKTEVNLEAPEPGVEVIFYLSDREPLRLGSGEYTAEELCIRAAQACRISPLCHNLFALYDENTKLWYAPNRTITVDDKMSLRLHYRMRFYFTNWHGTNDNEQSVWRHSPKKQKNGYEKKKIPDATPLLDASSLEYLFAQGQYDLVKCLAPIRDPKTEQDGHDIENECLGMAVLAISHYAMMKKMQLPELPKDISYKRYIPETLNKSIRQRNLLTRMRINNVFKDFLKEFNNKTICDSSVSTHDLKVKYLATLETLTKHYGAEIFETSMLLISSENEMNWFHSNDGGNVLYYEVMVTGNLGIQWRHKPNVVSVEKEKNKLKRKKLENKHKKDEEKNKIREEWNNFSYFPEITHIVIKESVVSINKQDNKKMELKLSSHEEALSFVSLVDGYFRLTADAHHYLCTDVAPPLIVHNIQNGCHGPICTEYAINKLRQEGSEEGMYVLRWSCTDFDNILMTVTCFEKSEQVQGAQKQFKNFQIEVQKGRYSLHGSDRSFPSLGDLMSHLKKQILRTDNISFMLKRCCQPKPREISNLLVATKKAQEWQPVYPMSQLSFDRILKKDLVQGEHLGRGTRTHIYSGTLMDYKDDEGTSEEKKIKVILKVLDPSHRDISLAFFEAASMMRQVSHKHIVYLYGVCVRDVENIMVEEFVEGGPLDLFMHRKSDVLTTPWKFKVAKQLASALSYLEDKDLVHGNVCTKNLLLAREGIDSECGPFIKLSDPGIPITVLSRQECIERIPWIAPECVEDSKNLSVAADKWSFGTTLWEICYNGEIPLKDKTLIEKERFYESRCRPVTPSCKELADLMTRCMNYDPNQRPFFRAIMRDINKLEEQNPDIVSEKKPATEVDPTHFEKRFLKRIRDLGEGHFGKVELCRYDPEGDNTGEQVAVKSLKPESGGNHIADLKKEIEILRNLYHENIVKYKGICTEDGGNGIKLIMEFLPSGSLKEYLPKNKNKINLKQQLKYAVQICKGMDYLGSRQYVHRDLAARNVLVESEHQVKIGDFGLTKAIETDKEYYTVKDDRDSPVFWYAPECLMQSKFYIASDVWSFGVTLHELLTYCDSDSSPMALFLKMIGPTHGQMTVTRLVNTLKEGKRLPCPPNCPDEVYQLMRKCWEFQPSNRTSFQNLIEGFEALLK

| Compound | IC50 [1] [nM] | IC50 [2] [nM] |
| --- | --- | --- |
| Cc1cnc(Nc2cnn(CC(F)F)c2)nc1N[C@H](CO)c1cc(F)ccc1F [Compound 166] | 100 to 1000 | 1000 to 10000 |
| Cn1cc(-c2cc(F)cc([C@@H](CO)Nc3nc(Nc4cnn(CCO)c4)ncc3Cl)c2)cn1 [Compound 152] | 100 to 1000 | 1000 to 10000 |
| O=C(Cn1cc(Nc2ncc(Cl)c(N[C@H](CO)c3ccccc3F)n2)cn1)N1CCOCC1 [Compound 103] | 100 to 1000 | 100 to 1000 |
| OCCn1cc(Nc2ncc(F)c(N[C@H](CO)c3ccccc3)n2)cn1 [Compound 10] | 1000 to 10000 | 1000 to 10000 |
| CNC(=O)Cn1cc(Nc2ncc(F)c(N[C@H](CO)c3ccccc3)n2)cn1 [Compound 111] | 1000 to 10000 | 1000 to 10000 |
| CNC(=O)Cn1cc(Nc2ncc(Cl)c(N[C@H](CO)c3cc(F)cc(-c4cnn(C)c4)c3)n2)cn1 [Compound 156] | 1000 to 10000 | ≥ 10000 |
| O=C(Cn1cc(Nc2ncc(Cl)c(N[C@H](CO)c3cccnc3)n2)cn1)N1CCOCC1 [Compound 104] | 100 to 1000 | 100 to 1000 |
| COc1ccccc1[C@@H](CO)Nc1nc(Nc2cnn(C(C)C)c2)ncc1Cl [Compound 105] | 1000 to 10000 | 1000 to 10000 |
| CCn1cc(Nc2ncc(Cl)c(N[C@H](CO)c3cccc(OC)c3)n2)cn1 [Compound 96] | 1000 to 10000 | 1000 to 10000 |
| CNC(=O)Cn1cc(Nc2ncc(Cl)c(N[C@H](CO)c3ccccc3F)n2)cn1 [Compound 100] | 100 to 1000 | 1000 to 10000 |
| Cn1cc(Nc2ncc(F)c(N[C@H](CO)c3cc(F)cc(F)c3)n2)cn1 [Compound 158] | 1000 to 10000 | 1000 to 10000 |
| CCn1cc(Nc2ncc(Cl)c(N[C@H](CO)c3ccccc3F)n2)cn1 [Compound 109] | 1000 to 10000 | 1000 to 10000 |
| CNC(=O)Cn1cc(Nc2ncc(F)c(N[C@H](CO)c3cccc(-c4cnn(C)c4)c3)n2)cn1 [Compound 155] | > 10000 | ≥ 10000 |
| CCC(Nc1nc(Nc2cnn(CC(N)=O)c2)ncc1Cl)c1ccccc1F (stereo not drawn) [Compound 126] | 100 to 1000 | 1000 to 10000 |
| Cn1cc(Nc2ncc(Cl)c(N[C@H](CO)c3cc(F)cc(F)c3)n2)cn1 [Compound 142] | 100 to 1000 | 1000 to 10000 |
| Cn1cc(Nc2ncc(Cl)c(N[C@H](CO)c3cccc(N4CCOCC4=O)c3F)n2)cn1 [Compound 162] | 1000 to 10000 | ≥ 10000 |
| CNC(=O)Cn1cc(Nc2ncc(Cl)c(N[C@H](CO)c3cccc(-c4cnn(C)c4)c3)n2)cn1 [Compound 154] | 1000 to 10000 | 100 to 1000 |
| Cn1cc(Nc2ncc(F)c(N[C@H](CO)c3cc(F)ccc3F)n2)cn1 [Compound 146] | 100 to 1000 | 100 to 1000 |
| NC(=O)Cn1cc(Nc2ncc(F)c(N[C@H](CO)c3ccccc3)n2)cn1 [Compound 108] | 1000 to 10000 | 1000 to 10000 |
| CNC(=O)Cn1cc(Nc2ncc(F)c(N[C@H](CO)c3cc(F)ccc3F)n2)cn1 [Compound 148] | 100 to 1000 | 100 to 1000 |
| COc1ccccc1[C@@H](CO)Nc1nc(Nc2cnn(CC(=O)N3CCOCC3)c2)ncc1Cl [Compound 101] | 100 to 1000 | < 100 |
| Cc1cnc(Nc2cnn(C)c2)nc1N[C@H](CO)c1cc(F)ccc1F [Compound 163] | 100 to 1000 | 100 to 1000 |
| Cn1cc(Nc2ncc(Cl)c(N[C@H](CO)c3cc(F)ccc3F)n2)cn1 [Compound 139] | 100 to 1000 | 100 to 1000 |
| CN1CCC(n2cc(Nc3ncc(Cl)c(N[C@H](CO)c4ccccc4)n3)cn2)C1=O (stereo partly drawn) [Compound 135] | 100 to 1000 | 1000 to 10000 |
| CCn1cc(Nc2ncc(Cl)c(N[C@H](CO)c3cccnc3)n2)cn1 [Compound 97] | 1000 to 10000 | 1000 to 10000 |
| Cn1cc(Nc2ncc(C(F)(F)F)c(N[C@H](CO)c3ccccc3)n2)cn1 [Compound 6] | > 10000 | ≥ 10000 |
| NC(=O)Cn1cc(Nc2ncc(Cl)c(NC(CO)c3cc(F)ccc3F)n2)cn1 (stereo not drawn) [Compound 132] | < 100 | 100 to 1000 |
